Experimental data: US7595401B2, “Therapeutic compounds and their use in cancer” (Myriad Pharmaceuticals, Inc., priority 2006, dated 2009)
pIC50: −log10 of the molar value.

Tested on: purified human Hsp90
Assay: Binding Assay: fluorescence polarization with BODIPY-labeled geldanamycin
Settings: 5 μM compound, BODIPY-GM 10 nM, Hsp90 30 nM
How it was run: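 Fluorescence polarization competition with BODIPY-geldanamycin (10 nM final) and human Hsp90 (30 nM final) in HEPES-KOH pH 7.3 buffer with molybdate, NP-40, DTT; 2% DMSO, overnight at room temperature. Read 485/530 nm; percent inhibition from mP normalized to DMSO controls, fluorescent-compound points excluded.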

Row | % Inhibition at 5 μM Compound Concentration | SMILES
1 | 13% | Nc1ncn(CCC2CCN(S(=O)(=O)C(F)(F)F)CC2)c2nc(Sc3cc4c(cc3Br)OCO4)nc1-2 [Example 388, 8-[(6-Bromo-1,3-benzodioxol-5-yl)thio]-3-(2-{1-[(trifluoromethyl)sulfonyl]piperidin 4-yl}ethyl)-3H-purin-6-amine]
2 | 0% | Nc1ncnc2c1nc(Sc1cc3c(cc1Br)OCO3)n2CC(O)c1ccc(Cl)cc1Cl (stereo not shown) [Example 177, 2-[6-Amino-8-(6-bromo-benzo[1,3]dioxol-5-ylsulfanyl)-purin-9-yl]-1-(2,4-dichloro-phenyl)-ethanol]
3 | 5% | COc1ccc(OC)c(Sc2nc3c(N)ncn(CCc4ccc(C(=O)O)cc4)c-3n2)c1 [Example 82, 4-{2-[6-Amino-8-(2,5-dimethoxy-phenylsulfanyl)-purin-3-yl]-ethyl}-benzoic acid]
4 | 0% | Nc1ncn(CCc2cccc(F)c2F)c2nc(Sc3cc4c(cc3Br)OCO4)nc1-2 [Example 162, 8-(6-bromo-benzo[1,3]dioxol-5-ylsulfanyl)-3-[2-(2,3-difluoro-phenyl)-ethyl]-3H-purin-6-ylamine]
5 | 0% | COc1ccc(OC)c(Sc2nc3c(N)ncn(CCc4ccc5c(c4)OCO5)c-3n2)c1 [Example 168, 3-(2-benzo[1,3]dioxol-5-yl-ethyl)-8-(2,5-dimethoxy-phenylsulfanyl)-3H-purin-6-ylamine]
6 | 37% | Nc1ncn(CCC2CCCCC2)c2nc(Sc3cc4c(cc3Br)OCO4)nc1-2 [Example 174, 8-(6-bromo-benzo[1,3]dioxol-5-ylsulfanyl)-3-(2-cyclohexyl-ethyl)-3H-purin-6-ylamine]
7 | 0% | COc1ccc(OC)c(Sc2nc3c(N)ncn(CCc4cccc(I)c4)c-3n2)c1 [Example 138, 8-(2,5-dimethoxy-phenylsulfanyl)-3-[2-(3-iodo-phenyl)-ethyl]-3H-purin-6-ylamine]
8 | 22% | Nc1ncnc2c1nc(Sc1ccc3c(c1)OCO3)n2CCc1ccc([N+](=O)[O-])cc1 [Example 7, 8-(Benzo[1,3]dioxol-5-ylsulfanyl)-9-[2-(4-nitro-phenyl)-ethyl]-9H-purin-6-ylamine]
9 | 21% | C=Cn1cnc(N)c2nc(Sc3cc4c(cc3Br)OCO4)nc1-2 [Example 499, 8-(6-bromo-benzo[1,3]dioxol-5-ylsulfanyl)-3-vinyl-3H-6-ylamine]
10 | 3% | Nc1ncn(CCn2cccc2)c2nc(Sc3ccc4c(c3)OCO4)nc1-2 [Example 50, 8-(benzo[1,3]dioxol-5-ylsulfanyl)-3-(2-pyrrol-1-yl-ethyl)-3H-purin-6-ylamine]
11 | >10% | Nc1ncn(CCc2ccc(-c3ccccc3)cc2)c2nc(Sc3cc4c(cc3Br)OCO4)nc1-2 [Example 172, 3-(2-biphenyl-4-yl-ethyl)-8-(6-bromo-benzo[1,3]dioxol-5-ylsulfanyl)-3H-purin-6-ylamine]

Same assay, conditions: BODIPY-GM 10 nM, Hsp90 30 nM

Row | pIC50 | SMILES
12 | 6.46 | COc1ccc(CCn2c(Sc3cc4c(cc3Br)OCO4)nc3c(N)ncnc32)cc1OC [Example 296, 8-[(6-Bromo-1,3-benzodioxol-5-yl)thio]-9-[2-(3,4-dimethoxyphenyl)ethyl]-9H-purin-6-amine]
13 | 6.70 | COc1cc(CCn2c(Sc3cc4c(cc3Br)OCO4)nc3c(N)ncnc32)cc(OC)c1OC [Example 91, 8-(6-Bromo-benzo[1,3]dioxol-5-ylsulfanyl)-9-[2-(3,4,5-trimethoxy-phenyl)-ethyl]-9H-purin-6-ylamine]
14 | 6.70 | CC(C)[C@H]1C[C@H](CCn2c(Sc3cc4c(cc3Br)OCO4)nc3c(N)ncnc32)CCN1 (relative stereo) [Example 479, 8-[(6-bromo-1,3-benzodioxol-5-yl)thio]-9-{2-[trans-2-isopropylpiperidin-4-yl]ethyl}-9 H-purin-6-amine]
15 | < 5.00 | COc1cc(Sc2nc3c(N)ncnc3n2CCc2ccc(Cl)cc2)cc(OC)c1OC [Example 31, 9-[2-(4-Chloro-phenyl)-ethyl]-8-(3,4,5-trimethoxy-phenylsulfanyl)-9H-purin-6-ylamine]
16 | < 4.60 | Nc1ncn(CCC2CCCCC2)c2nc(Sc3cc4c(cc3Br)OCO4)nc1-2 [Example 174, 8-(6-bromo-benzo[1,3]dioxol-5-ylsulfanyl)-3-(2-cyclohexyl-ethyl)-3H-purin-6-ylamine]
17 | 6.85 | CC1CC1C(=O)N1CCC(CCn2c(Sc3cc4c(cc3Br)OCO4)nc3c(N)ncnc32)CC1 (stereo not shown) [Example 518, 8-[(6-Bromo-1,3-benzodioxol-5-yl)thio]-9-(2-{1-[(2-methylcyclopropyl)carbonyl]piperidin-4-yl}ethyl)-9 H-purin-6-amine]
18 | 6.10 | N#CC1CCN(CCn2c(Sc3cc4c(cc3Br)OCO4)nc3c(N)ncnc32)CC1 [Example 575, 1-(2-{6-Amino-8-[(6-bromo-1,3-benzodioxol-5-yl)thio]-9 H-purin-9-yl}ethyl)piperidine-4-carbonitrile]
19 | 6.35 | Nc1ncnc2c1nc(Cc1cc3c(cc1Br)OCO3)n2CCc1ccccc1 [Example 209, 8-(6-Bromo-benzo[1,3]dioxol-5-ylmethyl)-9-phenethyl-9H-purin-6-ylamine]
20 | < 5.00 | Nc1ncn(CCc2ccc(F)cc2)c2nc(Sc3ccc4c(c3)OCO4)nc1-2 [Example 12, 8-(benzo[1,3]dioxol-5-ylsulfanyl)-3-[2-(4-fluoro-phenyl)-ethyl]-3H-purin-6-ylamine]
21 | 7.46 | Nc1ncnc2c1nc(Sc1cc3c(cc1Br)OCO3)n2CC[C@H]1CCCNC1 [Example 473, 8-[(6-Bromo-1,3-benzodioxol-5-yl)thio]-9-{2-[(3R)-piperidin-3-yl]ethyl}-9 H-purin-6-amine]
22 | < 5.30 | COc1c(F)cc(Sc2nc3c(N)ncnc3n2CCC2CCN(C(C)=O)CC2)cc1Cl [Example 569, 9-[2-(1-Acetylpiperidin-4-yl)ethyl]-8-[(3-chloro-5-fluoro-4-methoxyphenyl)thio]-9 H-purin-6-amine]
23 | 6.68 | COc1ccc(OC)c(Sc2nc3c(N)ncnc3n2CCc2cccc(I)c2)c1 [Example 137, 8-(2,5-Dimethoxy-phenylsulfanyl)-9-[2-(3-iodo-phenyl)-ethyl]-9H-purin-6-ylamine]
24 | < 5.30 | COc1ccc([N+](=O)[O-])cc1Sc1nc2c(N)ncnc2n1CCC1CCN(C=O)CC1 [Example 536, 4-(2-{6-Amino-8-[(2-methoxy-5-nitrophenyl)thio]-9 H-purin-9-yl}ethyl)piperidine-1-carbaldehyde]
25 | 5.40 | CC(=O)N1CCC(CCn2c(Sc3nc4ccccc4s3)nc3c(N)ncnc32)CC1 [Example 659, 9-[2-(1-Acetylpiperidin-4-yl)ethyl]-8-(1,3-benzothiazol-2-ylthio)-9H-purin-6-amine]
26 | 6.96 | C[C@H](N)C(=O)N1CCCC(CCn2c(Sc3cc4c(cc3Br)OCO4)nc3c(N)ncnc32)C1 (stereo partly drawn) [Example 747, 9-(2-{1-[(2S)-2-Aminopropanoyl]piperidin-3-yl}ethyl)-8-[(6-bromo-1,3-benzodioxol-5-yl)thio]-9H-purin-6-amine]
27 | 6.26 | COc1ccc(OC)c(Sc2nc3c(N)ncnc3n2CC(c2ccccc2)C(C)C)c1 (stereo not shown) [Example 113, 8-(2,5-Dimethoxy-phenylsulfanyl)-9-(3-methyl-2-phenyl-butyl)-9H-purin-6-ylamine]
28 | 5.22 | CC(=O)N1CCCC(CCn2c(Sc3cc4c(cc3Br)OCO4)nc3c(N)ncnc32)C1 (stereo not shown) [Example 400, 9-[2-(1-Acetylpiperidin-3-yl)ethyl]-8-[(6-bromo-1,3-benzodioxol-5-yl)thio]-9H-purin-6-amine]
